The values below come from patent publication US8372869B2, “Process for the treatment of bacterial infections using 2-phenyl-1,2-benzisoselenazol-3(2H)-one 1-oxide” (priority 2008, dated 2013).

The subject of series [1] is Staphylococcus aureus strain, positive for catalase and coagulase (Gram-positive). As to the kind of experiment: Bacterial growth inhibition by light-scattering at 550 nm, Staphylococcus aureus. In kind it is cell-based. The note with it: read-out: IC50, concentration required to inhibit the growth of Staphylococcus aureus to 50% of the untreated control. An excerpt:
(§1) A Gram-negative Escherichia coli strain, DH5(alpha), was purchased from Invitrogen (Cat #18265-017; Carlsbad, Calif.) and a Gram-positive Staphylococcus aureus strain, positive for catalase and coagulase, was purchased from Ward's Natural Science (Cat #85V1178; Rochester, N.Y.). S. aureus strain ATCC 33592 is a clinical isolate which is resistant to methicillin and which was obtained from the American Type Culture Collection (Manassas, Va.). S. aureus strain NARSA VRS 1 is a clinical isolate which is resistant to both methicillin and vancomycin and which was obtained from Focus Technologies, Inc. (Herndon, Va.). These bacterial strains were used to test the antibacterial activity of ebselen se-oxide. To prepare ebselen se-oxide, an adequate amount of said compound was dissolved in 0.5 mL of dimethylsulfoxide (DMSO) to give a 30.0 mM stock solution.
(§2) Luria Broth (LB) was used to for the culturing of both bacterial strains. […]
(§3) Bacterial growth, in the absence or presence of ebselen se-oxide, was assessed by light-scattering at 550 nm. In separate experiments, bacterial cells of either the Staphylococcus aureus or the Escherichia coli strain were inoculated into polypropylene tubes containing 5 mL of LB medium to obtain an initial optical density at 550 nm (OD550) of ˜0.005, as determined using a spectrophotometer (UV 160U, Shimadzu Corp., Kyoto, Japan). […]

Series [2] relates to S. aureus strain NARSA VRS1 (resistant to both methicillin and vancomycin). Briefly: Broth microdilution susceptibility testing, methicillin- and vancomycin-resistant S. aureus. In kind it is cell-based, Staphylococcus aureus. The note with it: strain NARSA VRS1, Mueller Hinton Broth, 24 (±4) hr, 35-37° C., 3.125-25 μM tested.
Description: as §1
(§4) Note that all susceptibility assays were performed in triplicate wells using sterile flat-bottom 96-well microtiter plates. […] After 24 (±4) hr of incubation at 35-37° C., the MIC (minimum inhibitory concentration) for ebselen se-oxide was determined for each strain visually by comparing the turbidity of the triplicate treatments to that observed for drug-free growth control wells. […]
(In broth dilution the organism is exposed to a series of concentrations in liquid medium.)

The next series has as its system A-431 human skin cells. Briefly: MTT viability assay in human skin cells. The class given is cell-based. As to conditions: 12.5, 25 or 50 μM, 24 hr, 37° C., serum-free DMEM. Here is the method: Cells were then incubated for 24 hr at 37° C. After incubation, the MTT viability assay was performed. This assay measures the conversion of 3-[4,5-dimethylthiazol-2-yl]-2,5-diphenyl tetrazolium bromide (MTT) into a colored product in living cells. The optical density of this purple formazan product in the cell culture medium was then measured spectrophotometrically at 570 nm and cell viability was determined as described by Mosmann (15).
The MTT assay was used to determine cell viability and the LC50 value for ebselen se-oxide in these cells was evaluated.
(Tetrazolium assays rely on reduction of a dye to a coloured formazan, in cell work by metabolically active cells.)

For series [3], the system named is Escherichia coli strain DH5(alpha) (Gram-negative). As to the kind of experiment: Bacterial growth inhibition by light-scattering at 550 nm, Escherichia coli. In kind it is cell-based. The note with it: read-out: IC50 towards Escherichia coli cells (growth inhibition).
Description: as §1, §2, §3

For series [4], the system named is S. aureus strain ATCC 33592 (resistant to methicillin). As to the kind of experiment: Broth microdilution susceptibility testing, methicillin-resistant S. aureus. The class given is cell-based, Staphylococcus aureus. The note with it: strain ATCC 33592, Mueller Hinton Broth, 24 (±4) hr, 35-37° C., 3.125-25 μM tested.
Description: as §1, §4

Molecules are shown by their SMILES. Entries after “also recorded” stand apart in the source; their conditions may differ.

Regarding `O=C1c2ccccc2[Se](=O)N1c1ccccc1` (stereo not drawn) [ebselen se-oxide, 2-phenyl-1,2-benzisoselenazol-3(2H)-one 1-oxide], the IC50 is around 0.6 µM in series [1] and around 17 µM in series [3]. Moreover, the “MIC (lowest concentration showing 100% growth inhibition in all three wells)” value in series [2] and in series [4] was “low micromolar range” throughout. The “Cytotoxic effect on viability of A-431 human skin cells (MTT)” value in the series on A-431 human skin cells was “neither compound was toxic; also recorded: no toxicity”.
Consider `O=c1c2ccccc2[se]n1-c1ccccc1` [ebselen, 2-phenyl-1,2-benzoisoselenazol-3(2H)-one, reference compound], for which the “Cytotoxic effect on viability of A-431 human skin cells (MTT)” value with A-431 human skin cells is given as “neither compound was toxic”.
